Test results taken from patent publication US20240398771A1, “TREATMENT OF SCLERODERMA AND RAYNAUD'S SYNDROME” (Aisa Pharma, Inc., priority 2023, published 2024).

How the values were obtained:
participants with SSc-RP [1] = assay: SHAQ Alternative Disability Index; format: in vivo, human
From the text: The standard, validated, patient reported outcome measures tool for SSc patients, the Scleroderma Health Assessment Questionnaire (SHAQ), will be used to assess the participant qualify of life. Details are attached in the Appendix. The participant quality of life will be scored, and a disability index calculated for each questionnaire completed by the patient at Screening and each in-clinic visit. The absolute change in participant quality of life from baseline to the end of each dosing period will be calculated similar to frequency data as before.
The SHAQ is used to calculate a Disability Index to assess the participant qualify of life. The eight categories assessed by the Disability Index are 1) dressing and grooming, 2) arising, 3) eating, 4) walking, 5) hygiene, 6) reach, 7) grip, and 8) common daily activities. For each of these categories, patients report the amount of difficulty they have in performing two or three specific activities.
There are four possible responses for the Disability Index questions: • Without any difficulty=0 • With some difficulty=1 • With much difficulty=2 • Unable to do=3 • The highest score reported by the patient for any component question of the eight categories determines the score for that category. • If a component question is left blank or the response is too ambiguous to assign a score, then the score for that category is determined by the remaining completed question(s). • If all component questions are blank or if more than one answer is given, then follow up with the respondent is required. • If the respondent's mark is between the response columns, then move it to the closest one. If it's directly between the two, move it to the higher one.
The scoring variables and scoring rules permit the computation of two disability indices, the Standard Disability Index and the Alternative Disability Index.
The aid and device variables are not used to calculate the alternative disability index; it is calculated by adding the scores for each of the categories and dividing by the number of categories answered. This gives a score in the 0 to 3 range.

participants with SSc-RP [2] = assay: SHAQ Visual Analog Scale - Intestinal Problems; format: in vivo, human; conditions: Modified ITT, Part A
Method: (§1) Results: Patients in the study were administered the Scleroderma Health Assessment Questionnaire (SHAQ) at the time of study entry and during clinic visits following the treatment period. The study is a two-part, parallel arm design, prospective, double-blind, randomized study conducted in Australia (Flinders Medical Center). 27 patients were randomized into the first phase of the study, following which a DSMB meeting was held, which reviewed data on the primary study endpoint and key Raynaud's secondary endpoints. Data on the SHAQ was not available for the DSMB to review. The mITT population, in which any data was available post treatment was 24 patients was the analysis population for this first part of the study. The second part (i.e., part B) of the study will randomize 36 patients in a double blind, randomized, prospective, placebo controlled, crossover study. In the first part (i.e., Part A) of the study for which data is presented, patients were randomized into 6 groups, cilnidipine at two doses (10 and 20 mg) alone and in combination with tadalafil 5 mg, tadalafil 5 mg alone, and placebo. […] The DSMB recommended that the study proceed into its double blind prospective cross overpowered second phase and compare cilnidipine 20 mg alone to placebo. […] Cilnidipine treatment may reduce patient-reported SSc disease disability compared to placebo • b. Cilnidipine treatment may reduce patient-reported SSc disease alternative disability compared to placebo • c. Cilnidipine treatment may reduce patient-reported SSc disease pain* compared to placebo • d. Cilnidipine treatment may reduce patient-reported SSc disease severity compared to placebo • e. Cilnidipine treatment may reduce patient-reported SSc disease skin ulcer severity rating compared to placebo • f Cilnidipine treatment may reduce patient-reported SSc disease breathing difficulty compared to placebo • g. […] SSc disease pain comprises not only pain from Raynaud's but joint pain, headache, odynophagia, back pain, pain from skin ulceration, and neuropathic pain). Table E includes results of the Scleroderma Health Assessment Questionnaire.

participants with SSc-RP [3] = assay: SHAQ Visual Analog Scale - Raynaud's; format: in vivo, human; set-up: Visual Analog Scale-Raynaud's, Baseline, Mean / Visual Analog Scale-Raynaud's, Baseline, Median / Visual Analog Scale-Raynaud's, In Clinic Visit (Day 12), Mean / Visual Analog Scale-Raynaud's, In Clinic Visit (Day 12), Median: scale not given here; conditions: Modified ITT, Part A
From the text: The SHAQ includes a Raynaud's VAS, which will be reported at screening and each in-clinic visit. The absolute change in Raynaud-VAS, assessed by the participants response to the SHAQ question ‘In the past 7 days, how much have your Raynaud's interfered with your daily activities?’ at baseline and the end of each dosing period will be calculated similar to frequency data as before. […]

participants with SSc-RP [4] = assay: SHAQ Visual Analog Scale - Finger Ulcers; format: in vivo, human; set-up: Finger Ulcers, Baseline, Mean / Finger Ulcers, Baseline, Median / Finger Ulcers, Change from Baseline, Mean / Finger Ulcers, Change from Baseline, Median: scale not given here
Method: as §1

participants with SSc-RP [5] = assay: SHAQ Visual Analog Scale - overall disease severity; format: in vivo, human; set-up: Overall Change in Severity, Baseline, Mean / Overall Change in Severity, Baseline, Median / Overall Change in Severity, Change from Baseline, Mean / Overall Change in Severity, Change from Baseline, Median: scale not given here
Method: as §1

[6] = oral dosing; cited from earlier work
[7] = Tadalafil 5 mg, Modified ITT, Part A
[8] = Cilnidipine 10 mg, Modified ITT, Part A
[9] = Cilnidipine 20 mg, Modified ITT, Part A
[10] = Pooled Cilnidipine (10 mg or 20 mg, N = 7), mITT Part A

CN1CC(=O)N2[C@H](c3ccc4c(c3)OCO4)c3[nH]c4ccccc4c3C[C@@H]2C1=O [Tadalafil]
Alternative disability index, Baseline, Mean (participants with SSc-RP [1]; [7]): 0.688 | Alternative disability index, Change from Baseline, Mean (participants with SSc-RP [1]; [7]): −0.071 | Alternative disability index, Change from Baseline, Median (participants with SSc-RP [1]; [7]): −0.063 | Alternative disability index, In Clinic Visit (Day 12), Mean (participants with SSc-RP [1]; [7]): 0.616 | Alternative disability index, In Clinic Visit (Day 12), Median (participants with SSc-RP [1]; [7]): 0.482 | Alternative disability index, Percent Change from Baseline, Mean (participants with SSc-RP [1]; [7]): 21.25% | Alternative disability index, Percent Change from Baseline, Median (participants with SSc-RP [1]; [7]): −7.69% | Visual Analog Scale-Intestinal Problems, Baseline, Mean (participants with SSc-RP [2]; Tadalafil 5 mg): 0.925 | Visual Analog Scale-Intestinal Problems, Baseline, Median (participants with SSc-RP [2]; Tadalafil 5 mg): 0.950 | Visual Analog Scale-Intestinal Problems, Change from Baseline, Mean (participants with SSc-RP [2]; Tadalafil 5 mg): −0.250 | Visual Analog Scale-Intestinal Problems, Change from Baseline, Median (participants with SSc-RP [2]; Tadalafil 5 mg): −0.150 | Visual Analog Scale-Intestinal Problems, In Clinic Visit (Day 12), Mean (participants with SSc-RP [2]; Tadalafil 5 mg): 1.175 | Visual Analog Scale-Intestinal Problems, In Clinic Visit (Day 12), Median (participants with SSc-RP [2]; Tadalafil 5 mg): 0.100 | Visual Analog Scale-Intestinal Problems, Percent Change from Baseline, Mean (participants with SSc-RP [2]; Tadalafil 5 mg): −2.55% | Visual Analog Scale-Intestinal Problems, Percent Change from Baseline, Median (participants with SSc-RP [2]; Tadalafil 5 mg): −88.89% | Visual Analog Scale-Raynaud's, Baseline, Median (participants with SSc-RP [3]; Tadalafil 5 mg): 0.500 | Visual Analog Scale-Raynaud's, Change from Baseline, Median (participants with SSc-RP [3]; Tadalafil 5 mg): −0.150 | Visual Analog Scale-Raynaud's, In Clinic Visit (Day 12), Mean (participants with SSc-RP [3]; Tadalafil 5 mg): 1.500 | Visual Analog Scale-Raynaud's, In Clinic Visit (Day 12), Median (participants with SSc-RP [3]; Tadalafil 5 mg): 0.400 | Visual Analog Scale-Raynaud's, Percent Change from Baseline, Mean (participants with SSc-RP [3]; Tadalafil 5 mg): −20.78% | Visual Analog Scale-Raynaud's, Percent Change from Baseline, Median (participants with SSc-RP [3]; Tadalafil 5 mg): −37.35% | Finger Ulcers, Baseline, Mean (participants with SSc-RP [4]; [7]): 2.125 | Finger Ulcers, Baseline, Median (participants with SSc-RP [4]; [7]): 0.050 | Finger Ulcers, Change from Baseline, Mean (participants with SSc-RP [4]; [7]): −0.967 | Finger Ulcers, Change from Baseline, Median (participants with SSc-RP [4]; [7]): −0.100 | Finger Ulcers, In Clinic Visit (Day 12), Mean (participants with SSc-RP [4]; [7]): 1.867 | Finger Ulcers, In Clinic Visit (Day 12), Median (participants with SSc-RP [4]; [7]): 0.000 | Finger Ulcers, Percent Change from Baseline, Mean (participants with SSc-RP [4]; [7]): −66.67% | Finger Ulcers, Percent Change from Baseline, Median (participants with SSc-RP [4]; [7]): −66.67% | Overall Change in Severity, Baseline, Mean (participants with SSc-RP [5]; [7]): 3.600 | Overall Change in Severity, Baseline, Median (participants with SSc-RP [5]; [7]): 2.550 | Overall Change in Severity, Change from Baseline, Mean (participants with SSc-RP [5]; [7]): −0.850 | Overall Change in Severity, Change from Baseline, Median (participants with SSc-RP [5]; [7]): −0.650 | Overall Change in Severity, In Clinic Visit (Day 12), Mean (participants with SSc-RP [5]; [7]): 2.750 | Overall Change in Severity, In Clinic Visit (Day 12), Median (participants with SSc-RP [5]; [7]): 1.500 | Overall Change in Severity, Percent Change from Baseline, Mean (participants with SSc-RP [5]; [7]): −31.76% | Overall Change in Severity, Percent Change from Baseline, Median (participants with SSc-RP [5]; [7]): −36.22% | time to achieve maximal plasma concentrations (Tmax) [6]: 2 h

COCCOC(=O)C1=C(C)NC(C)=C(C(=O)OC/C=C/c2ccccc2)C1c1cccc([N+](=O)[O-])c1 (centres unmarked) [Cilnidipine, 1,4-dihydro-2,6-dimethyl,4-(3-nitrophenyl)-3,5-pyridinedicarboxylic acid 2-methoxyethyl (2 E)-3-phenyl-2-propenyl ester]
Alternative disability index, Baseline, Mean (participants with SSc-RP [1]; [8]): 0.500 | Alternative disability index, Baseline, Median (participants with SSc-RP [1]; [9]): 0.250 | patient-reported SSc disease alternative disability compared to placebo (participants with SSc-RP [1]; Example 4, SHAQ, mITT Part A): may reduce | Visual Analog Scale-Intestinal Problems, Baseline, Median (participants with SSc-RP [2]; Cilnidipine 20 mg): 1.000 | Visual Analog Scale-Raynaud's, Baseline, Mean (participants with SSc-RP [3]; Cilnidipine 10 mg): 1.600 | Visual Analog Scale-Raynaud's, Baseline, Median (participants with SSc-RP [3]; Cilnidipine 10 mg): 1.000 | Visual Analog Scale-Raynaud's, Change from Baseline, Median (participants with SSc-RP [3]; Cilnidipine 10 mg): 0.350 | Visual Analog Scale-Raynaud's, In Clinic Visit (Day 12), Median (participants with SSc-RP [3]; Cilnidipine 10 mg): 1.700 | Visual Analog Scale-Raynaud's, Baseline, Mean (participants with SSc-RP [3]; Cilnidipine 20 mg): 2.300 | Visual Analog Scale-Raynaud's, Baseline, Median (participants with SSc-RP [3]; Cilnidipine 20 mg): 2.500 | Visual Analog Scale-Raynaud's, Change from Baseline, Median (participants with SSc-RP [3]; Cilnidipine 20 mg): −1.100 | Visual Analog Scale-Raynaud's, In Clinic Visit (Day 12), Median (participants with SSc-RP [3]; Cilnidipine 20 mg): 1.100 | Visual Analog Scale-Raynaud's, Percent Change from Baseline, Median (participants with SSc-RP [3]; Cilnidipine 20 mg): −44.00% | Finger Ulcers, Baseline, Mean (participants with SSc-RP [4]; [8]): 0.700 | Finger Ulcers, Baseline, Median (participants with SSc-RP [4]; [8]): 0.500 | Finger Ulcers, Change from Baseline, Median (participants with SSc-RP [4]; [8]): −0.350 | Finger Ulcers, In Clinic Visit (Day 12), Median (participants with SSc-RP [4]; [8]): 0.000 | Finger Ulcers, Baseline, Mean (participants with SSc-RP [4]; [9]): 1.800 | Finger Ulcers, Baseline, Median (participants with SSc-RP [4]; [9]): 0.300 | Finger Ulcers, Change from Baseline, Median (participants with SSc-RP [4]; [9]): 0.000 | Finger Ulcers, In Clinic Visit (Day 12), Median (participants with SSc-RP [4]; [9]): 0.700 | patient-reported SSc disease skin ulcer severity rating compared to placebo (participants with SSc-RP [4]; Example 4, SHAQ, mITT Part A): may reduce | Overall Change in Severity, Baseline, Median (participants with SSc-RP [5]; [8]): 1.900 | Overall Change in Severity, Change from Baseline, Mean (participants with SSc-RP [5]; [8]): −0.900 | Overall Change in Severity, Change from Baseline, Median (participants with SSc-RP [5]; [8]): −0.950 | Overall Change in Severity, Baseline, Median (participants with SSc-RP [5]; [9]): 2.900 | Overall Change in Severity, Change from Baseline, Median (participants with SSc-RP [5]; [9]): −1.600 | Overall Change in Severity, In Clinic Visit (Day 12), Median (participants with SSc-RP [5]; [9]): 1.200 | Overall Change in Severity, Percent Change from Baseline, Median (participants with SSc-RP [5]; [9]): −60.00% | patient-reported SSc disease severity compared to placebo (participants with SSc-RP [5]; Example 4, SHAQ, mITT Part A): may reduce | SHAQ patient reported disease severity: Baseline, Mean (SD) (participants with SSc-RP [5]; [10]): 2.700 (2.3424) | SHAQ patient reported disease severity: Baseline, Median (participants with SSc-RP [5]; [10]): 2.900 | time to achieve maximal plasma concentrations (Tmax) [6]: about 2 hours
